Experimental data: patent US9381173B2, “Isolated stereoisomeric forms of (S)2-N(3-O-(propan 2-Ol)-1-propyl-4-hydroxybenzene)-3-phenylpropylamide” (Novaremed Ltd., priority 2011, dated 2016)

Tests used:
[1] = system: spinal nerve ligation (SNL or Chung) model for neuropathic pain in rats; assay: Spinal nerve ligation (Chung) model, Von Frey test for mechanical allodynia; assay type: in vivo; details: for delta force right minus left leg, Day 14 Pretreatment / mean Von Frey force, left operated leg, Day 14 Pretreatment: before first dose; for difference (delta) force between right healthy leg and left operated leg, Baseline: before operation; for mean Von Frey force required for withdrawal of the left operated leg, Baseline: day -1, before operation
Experimental: The antinociceptive and analgesic activity of E1 in a spinal nerve ligation (SNL or Chung) model for neuropathic pain in rats was evaluated.
On study day 0, all animals underwent Chung surgery, which consisted of an operation where the left L5-L6 spinal nerves were isolated and cut. Fourteen days post surgery the animals were selected using pain threshold results from the Von Frey test. Only animals that indicated signs of mechanical allodynia were included in the study. After the selection process, the animals were grouped and Test Items were administered via IP. The pain response was measured using Von Frey methodology at 2, 5 and 24 hours after Test Item administration on study day 14, and at 2, 5, 24 and 48 hours on study day 21 after 7 days of Test Item administration.
Species: 50 SD young adult male rats, 225-260 g at study initiation (Harlan Laboratories, Israel. Ltd.)
Neuropathic Pain Induction: While under anesthesia using ketamine/xylazine sodium and after the area was shaved, the rat was placed in a prone position and the left paraspinal muscles were separated from the spinous process at the L4-S2 levels. The L6 vertebral transverse process was carefully removed with a small rongeur to visually identify the L5-L6 spinal nerves. The left L5-L6 spinal nerves were cut. The muscle was then closed with 4-0 silk sutures and the skin was closed by a clamp. Following surgery, the rats were returned to the cage and remained under a heating lamp until they awoke.
Inclusion/Exclusion Criteria for Pre-Selection: On post-operative day 14, animals were tested for mechanical allodynia using Von Frey methodology prior to being placed in their experimental groups. Only animals with a pain threshold of ≦26 g for the operated leg were included in the study. In order to form homogenous treatment groups and to adhere to randomization, all the operated rats were grouped according to inclusion/exclusion criteria.
The Von Frey test was performed prior to Test Items' administrations (pre-TI injection) and at 2 and 5 hours after TI administration (post-TI injection) on study days 14 and 21.
Von Frey test was performed prior to TI's administration on study day 15 (24 hours post-TI's administration on study day 14) and on study days 22 and 23 (24 and 48 hours respectively post-TI's administration on study day 21).
Pain Response Evaluation: Pain response was evaluated using Von Frey test for mechanical allodynia.
The Von Frey test for mechanical allodynia is based on applying short pulses of pressure that are not painful to a naive animal. In fact, in order to achieve paw withdrawal from a naive animal, the pressure applied is sometimes higher than 60 g. This often requires the researcher to apply enough pressure with the Von Frey filament to actually lift the paw of the naive animal. However, in disease conditions, the animals are sensitive to much lower pressure and experience pain as a result of a normally non-painful stimulus.
Mechanical Allodynia Evaluation (Von Frey Testing): Allodynic response to tactile stimulation was assessed using the Von Frey apparatus (Touch®).
The rats were placed in an enclosure and positioned on a metal mesh surface, but allowed to move freely. The rats' cabins were covered with red cellophane to diminish environmental disturbances. The test began after cessation of exploratory behavior. The set of Von Frey monofilaments provide an approximate logarithmic scale of actual force and a linear scale of perceived intensity as provided by the manufacturer of the Von Frey apparatus (Ugo Basil). The operating principle: When the tip of a fiber of given length and diameter is pressed against the skin at right angles, the force of application increases as long as the researcher continues to advance the probe until the fiber bends. After the fiber bends, the probe continues to advance, causing the fiber to bend more, but without additional force being applied to the paw. […]

[2] = Body weight in the Chung model study; assay type: in vivo, rats; details: for Mean group body weight Day 14: before first administration; for Mean group body weight Day 7: before treatment; for Mean group body weight Baseline: study day -1, before surgery and treatment
Experimental: Body Weights: Body weight was measured at regular intervals on study days −1 for baseline values and seven days after the surgery (study day 7).

BLK = BLK (Homo sapiens, UniProt P51451); assay: BLK mobility-shift kinase assay (Caliper LabChip 3000); assay type: biochemical; details: 5 concentrations, duplicate wells; listed as (S,S) enantiomer
Chain of BLK (P51451 whole entry, species assumed): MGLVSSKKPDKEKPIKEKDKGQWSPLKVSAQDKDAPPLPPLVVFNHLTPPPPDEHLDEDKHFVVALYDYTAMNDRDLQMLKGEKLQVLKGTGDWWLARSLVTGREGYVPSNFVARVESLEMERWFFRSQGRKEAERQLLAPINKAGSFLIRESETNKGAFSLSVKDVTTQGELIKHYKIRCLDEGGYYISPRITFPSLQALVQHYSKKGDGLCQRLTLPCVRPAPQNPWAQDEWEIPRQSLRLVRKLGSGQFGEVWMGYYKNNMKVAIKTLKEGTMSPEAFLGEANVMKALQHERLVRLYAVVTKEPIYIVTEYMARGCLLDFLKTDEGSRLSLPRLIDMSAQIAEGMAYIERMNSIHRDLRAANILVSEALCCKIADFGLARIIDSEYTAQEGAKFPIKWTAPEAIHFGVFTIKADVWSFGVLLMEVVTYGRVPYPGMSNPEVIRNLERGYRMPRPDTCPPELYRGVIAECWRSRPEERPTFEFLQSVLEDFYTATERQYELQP
Experimental: (§1) Each compound and concentration was tested in duplicate wells.
(§2) Data points are the averages of duplicate wells. Error bars represent the mean±replicate % activity.

Lyn A = Lyn A (Homo sapiens, UniProt P07948); assay: Lyn A mobility-shift kinase assay (Caliper LabChip 3000); assay type: biochemical; details: 5 concentrations, duplicate wells; listed as (S,S) enantiomer
Chain of Lyn A (P07948 whole entry, species assumed): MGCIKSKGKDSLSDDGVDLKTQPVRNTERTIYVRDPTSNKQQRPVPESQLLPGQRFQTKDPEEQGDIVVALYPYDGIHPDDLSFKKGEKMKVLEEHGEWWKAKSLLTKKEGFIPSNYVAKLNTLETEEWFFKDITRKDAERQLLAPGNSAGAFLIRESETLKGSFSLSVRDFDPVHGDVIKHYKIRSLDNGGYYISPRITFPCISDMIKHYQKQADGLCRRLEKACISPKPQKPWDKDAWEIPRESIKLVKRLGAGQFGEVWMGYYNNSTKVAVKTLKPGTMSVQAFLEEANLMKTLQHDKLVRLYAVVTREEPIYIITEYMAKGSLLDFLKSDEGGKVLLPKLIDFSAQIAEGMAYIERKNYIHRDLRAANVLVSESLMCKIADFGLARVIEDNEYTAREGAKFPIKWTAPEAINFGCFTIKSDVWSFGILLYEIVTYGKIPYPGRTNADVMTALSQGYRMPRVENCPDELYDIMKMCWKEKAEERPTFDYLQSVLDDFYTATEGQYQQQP
Experimental: as §1, §2

Lyn B = Lyn B (Homo sapiens, UniProt P07948); assay: Lyn B mobility-shift kinase assay (Caliper LabChip 3000); assay type: biochemical; details: 5 concentrations, duplicate wells; listed as (S,S) enantiomer
Chain of Lyn B (P07948 1-491 isoform P07948-2, species assumed): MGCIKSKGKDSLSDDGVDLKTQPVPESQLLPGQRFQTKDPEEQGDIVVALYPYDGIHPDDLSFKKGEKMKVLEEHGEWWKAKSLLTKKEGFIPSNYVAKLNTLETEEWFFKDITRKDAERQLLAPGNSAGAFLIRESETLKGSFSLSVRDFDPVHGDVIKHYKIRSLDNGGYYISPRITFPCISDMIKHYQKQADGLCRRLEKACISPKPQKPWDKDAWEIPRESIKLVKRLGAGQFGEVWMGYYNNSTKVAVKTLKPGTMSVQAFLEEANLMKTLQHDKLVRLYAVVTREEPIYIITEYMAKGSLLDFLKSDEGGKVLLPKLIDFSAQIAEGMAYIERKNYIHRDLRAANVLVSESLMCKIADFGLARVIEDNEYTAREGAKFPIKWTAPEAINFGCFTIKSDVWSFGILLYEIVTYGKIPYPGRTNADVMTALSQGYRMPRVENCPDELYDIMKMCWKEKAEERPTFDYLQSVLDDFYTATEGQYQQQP
Experimental: as §1, §2

[3] = 7.5 mg/kg IP, day 14, 2, 5 and 24 hours
[4] = 7.5 mg/kg IP, study day 14, 2, 5 and 24 hours
[5] = 15 mg/kg IP once daily day 14-21 (group 4)
[6] = 15 mg/kg IP, day 14, 5 and 24 hours
[7] = 15 mg/kg IP, study day 14, 5 and 24 hours
[8] = 30 mg/kg IP once daily day 14-21 (group 3)
[9] = 30 mg/kg IP once daily from day 14 (group 3)
[10] = 30 mg/kg IP, day 21, 2, 5 and 24 hours

CC(O)COCC(Cc1ccc(O)cc1)NC(=O)CCc1ccccc1 (single isomer, unassigned) [E1]
delta force right minus left leg, Day 14 Pretreatment ([1]; 7.5 mg/kg IP (group 5)): 50.10 ± 0.64 g | mean Von Frey force, left operated leg, Day 14 Pretreatment ([1]; 7.5 mg/kg IP (group 5)): 9.90 ± 0.64 g | difference (delta) force between right healthy leg and left operated leg, Baseline ([1]; 7.5 mg/kg IP (group 5)): 0.00 ± 0.00 g | mean Von Frey force required for withdrawal of the left operated leg, Baseline ([1]; 7.5 mg/kg IP (group 5)): 56.60 ± 3.40 g | inhibition of allodynia compared to the pretreatment value of delta withdrawal force [1, 3]: inhibited allodynia | pain relief activity, delta withdrawal force between the two legs vs. Vehicle [1, 3]: significant pain relief activity | inhibition of allodynia compared to the pretreatment value of delta withdrawal force ([1]; 7.5 mg/kg IP, day 21, 5 hours): inhibited allodynia | pain relief activity, delta withdrawal force between the two legs vs. Vehicle ([1]; 7.5 mg/kg IP, day 21 pretreatment, 2, 5, 24 and 48 hours): significant pain relief activity | inhibition of allodynia (Von Frey) compared to the Vehicle control [1, 4]: effectively inhibited allodynia | inhibition of allodynia (Von Frey) compared to the pretreatment value [1, 4]: inhibited allodynia | inhibition of allodynia (Von Frey) compared to the pretreatment value ([1]; 7.5 mg/kg IP, study day 21, 5 hours): inhibited allodynia | inhibition of allodynia (Von Frey) compared to the Vehicle control ([1]; 7.5 mg/kg IP, study day 21 pretreatment and 2, 5, 24 and 48 hours): inhibited allodynia | conclusion: pain analgesic item, parameters of mechanical allodynia ([1]; 7.5 mg/kg, 2, 5 and 24 hours day 14, 2, 5, 24 and 48 hours day 21): effective | delta force right minus left leg, Day 14 Post-treatment 2 hours ([1]; 15 mg/kg IP (group 4)): 48.20 ± 5.67 g | delta force right minus left leg, Day 14 Post-treatment 5 hours ([1]; 15 mg/kg IP (group 4)): 29.20 ± 6.66 g | mean Von Frey force, left operated leg, Day 14 Post-treatment 2 hours ([1]; 15 mg/kg IP (group 4)): 11.80 ± 5.67 g | delta force right minus left leg, Day 14 Pretreatment ([1]; 15 mg/kg IP (group 4)): 50.20 ± 0.90 g | mean Von Frey force, left operated leg, Day 14 Pretreatment ([1]; 15 mg/kg IP (group 4)): 9.80 ± 0.90 g | difference (delta) force between right healthy leg and left operated leg, Baseline ([1]; 15 mg/kg IP (group 4)): 0.00 ± 0.00 g | mean Von Frey force required for withdrawal of the left operated leg, Baseline ([1]; 15 mg/kg IP (group 4)): 56.60 ± 3.40 g | delta force right minus left leg, Day 21 Post-treatment 48 hours [1, 5]: 39.80 ± 4.80 g | mean Von Frey force, left operated leg, Day 21 Post-treatment 48 hours [1, 5]: 20.20 ± 4.80 g | inhibition of allodynia compared to the pretreatment value of delta withdrawal force [1, 6]: inhibited allodynia | pain relief activity, delta withdrawal force between the two legs vs. Vehicle [1, 6]: significant pain relief activity | pain relief activity, delta withdrawal force between the two legs vs. Vehicle ([1]; 15 mg/kg IP, day 21 pretreatment, 2, 5 and 24 hours): significant pain relief activity | inhibition of allodynia (Von Frey) compared to the Vehicle control [1, 7]: inhibited allodynia | inhibition of allodynia (Von Frey) compared to the pretreatment value [1, 7]: inhibited allodynia | inhibition of allodynia (Von Frey) compared to the Vehicle control ([1]; 15 mg/kg IP, study day 14, 2 hours): did not inhibit allodynia | inhibition of allodynia (Von Frey) compared to the Vehicle control ([1]; 15 mg/kg IP, study day 21, 48 hours): less effective | inhibition of allodynia (Von Frey) compared to the Vehicle control ([1]; 15 mg/kg IP, study day 21 pretreatment, 2, 5 and 24 hours): inhibited allodynia | conclusion: pain analgesic item, parameters of mechanical allodynia ([1]; 15 mg/kg, 5 and 24 hours day 14, 2, 5 and 24 hours day 21): effective | delta force right minus left leg, Day 14 Post-treatment 2 hours ([1]; 30 mg/kg IP (group 3)): 46.80 ± 1.70 g | delta force right minus left leg, Day 14 Post-treatment 24 hours ([1]; 30 mg/kg IP (group 3)): 34.80 ± 6.25 g | mean Von Frey force, left operated leg, Day 14 Post-treatment 2 hours ([1]; 30 mg/kg IP (group 3)): 13.20 ± 1.70 g | mean Von Frey force, left operated leg, Day 14 Post-treatment 5 hours ([1]; 30 mg/kg IP (group 3)): 30.60 ± 5.10 g | delta force right minus left leg, Day 14 Pretreatment ([1]; 30 mg/kg IP (group 3)): 49.50 ± 1.06 g | mean Von Frey force, left operated leg, Day 14 Pretreatment ([1]; 30 mg/kg IP (group 3)): 10.50 ± 1.06 g | difference (delta) force between right healthy leg and left operated leg, Baseline ([1]; 30 mg/kg IP (group 3)): 0.00 ± 0.00 g | mean Von Frey force required for withdrawal of the left operated leg, Baseline ([1]; 30 mg/kg IP (group 3)): 60.00 ± 0.00 g | delta force right minus left leg, Day 21 Post-treatment 48 hours [1, 8]: 51.10 ± 0.82 g | mean Von Frey force, left operated leg, Day 21 Post-treatment 2 hours [1, 8]: 19.40 ± 1.80 g | mean Von Frey force, left operated leg, Day 21 Post-treatment 5 hours [1, 8]: 22.90 ± 4.64 g | mean Von Frey force, left operated leg, Day 21 Post-treatment 24 hours [1, 8]: 17.50 ± 2.48 g | mean Von Frey force, left operated leg, Day 21 Post-treatment 48 hours [1, 8]: 8.90 ± 0.82 g | delta force right minus left leg, Day 21 Pretreatment [1, 9]: 47.00 ± 1.76 g | mean Von Frey force, left operated leg, Day 21 Pretreatment [1, 9]: 13.00 ± 1.76 g | inhibition of allodynia compared to the pretreatment value of delta withdrawal force ([1]; 30 mg/kg IP, day 14, 5 hours): inhibited allodynia | pain relief activity, delta withdrawal force between the two legs vs. Vehicle ([1]; 30 mg/kg IP, day 14, 5 hours): significant pain relief activity | inhibition of allodynia compared to the pretreatment value of delta withdrawal force [1, 10]: inhibited allodynia | pain relief activity, delta withdrawal force between the two legs vs. Vehicle [1, 10]: significant pain relief activity | inhibition of allodynia (Von Frey) compared to the pretreatment value ([1]; 30 mg/kg IP, study day 14, 5 hours): inhibited allodynia | inhibition of allodynia (Von Frey) compared to the pretreatment value ([1]; 30 mg/kg IP, study day 21, 2, 5 and 24 hours): inhibited allodynia | conclusion: pain analgesic item, parameters of mechanical allodynia ([1]; 30 mg/kg, at 5 post administration day 14, 2, 5 and 24 hours day 21): effective | duration of analgesic effect post administration ([1]; summary statement): more than 24 hours | behaviour of the operated paw on the Von Frey apparatus ([1]; treated animals): laid completely the operated paw on the metal mesh surface | Mean group body weight Day 14 ([2]; 7.5 mg/kg IP (group 5)): 287.60 ± 5.14 g | Mean group body weight Day 7 ([2]; 7.5 mg/kg IP (group 5)): 258.90 ± 4.41 g | Mean group body weight Baseline ([2]; 7.5 mg/kg IP (group 5)): 245.80 ± 2.54 g | Mean group body weight Day 21 ([2]; 7.5 mg/kg IP once daily from day 14 (group 5)): 303.80 ± 6.26 g | Mean group body weight Day 14 ([2]; 15 mg/kg IP (group 4)): 289.80 ± 3.27 g | Mean group body weight Day 7 ([2]; 15 mg/kg IP (group 4)): 259.20 ± 3.29 g | Mean group body weight Baseline ([2]; 15 mg/kg IP (group 4)): 245.00 ± 2.80 g | Mean group body weight Day 21 ([2]; 15 mg/kg IP once daily from day 14 (group 4)): 298.50 ± 3.27 g | Mean group body weight Day 14 ([2]; 30 mg/kg IP (group 3)): 288.70 ± 5.51 g | Mean group body weight Day 7 ([2]; 30 mg/kg IP (group 3)): 261.20 ± 4.45 g | Mean group body weight Baseline ([2]; 30 mg/kg IP (group 3)): 245.20 ± 3.19 g | Mean group body weight Day 21 [2, 9]: 303.30 ± 6.01 g | modulation of BLK tyrosine kinase activity (BLK): activated | modulation of LynA tyrosine kinase activity (Lyn A): activated | modulation of LynB tyrosine kinase activity (Lyn B): had no effect
